Molecules are shown by their SMILES. “Also recorded” adds a separate entry of the source.

One assay relates to CDK9. The experiment in a line: Immunoblotting of degronimid-treated MM.1S cells: CDK9. The assay is classed as cell-based, human. Particulars: 0.01-1 μM, 4 h. As for the experimental part: (§1) MM.1S cells were seeded in 6-well plates at 3×10^6 cells/well (˜24 h prior to addition of drug). […] Cell pellets were thawed on ice, lysed using RIPA buffer (ThermoFisher) with protease/phosphatase inhibitor cocktail (Cell Signal Technology, Danvers, Mass.) by incubating on ice 30 min. The lysates were clarified by spinning at 10,000 g for 10 min at 4° C. and the concentration of the lysate was determined using BCA protocol (ThermoFisher). Samples were prepared for Western blot using LDS sample buffer (NuPage, Invitrogen, Carlsbad, Calif., USA) with sample reducing agent (NuPage, Invitrogen) and heated to 95° C. for 5 min. Samples were loaded (20 ug/sample) into Tris-acetate or Bis-Tris gels (NuPage, Invitrogen) and run as per kit instructions using appropriate running buffers. Gels were transferred as described (Matthews et al., 2015) onto PVDF membrane using SDS-based transfer buffer (NuPage, Invitrogen). Membranes were blocked (5% skim milk; or 5% bovine serum albumin in TBS-T) for at least 30 min then probed with primary antibodies overnight (4° C.). […] Each protein of interest (BRD2, BRD3, BRD4, c-myc and CDK9) was assessed in a separate gel and corresponding membrane (which was simultaneously incubated with antibodies for both the target protein of interest and GAPDH, to provide a loading control within the same blot). […]

The next assay has as its target T1, BRD3 (Homo sapiens, UniProt Q15059).
T1 construct: endogenous in cells; host or cells: MM.1S
The experiment in a line: Immunoblotting of degronimid-treated MM.1S cells: BRD3. The class given is cell-based. The conditions noted are these: 0.01-1 μM, 4 h. As to the method:
as §1

Assay [1] relates to MM.1S cells. The experiment in a line: Assessment of apoptosis, Annexin V/PI flow cytometry. The class given is cell-based, human. As for the experimental part:
For the assessment of apoptosis, MM.1S cells were seeded into 6-well plates (2×10^6 cells/well) in medium supplemented with 10% FBS and penicillin/streptomycin (3.2 mL) 24 h prior to treatment. Cells were treated with dBET6, JQ1, or vehicle and harvested prior to staining with Annexin V-FITC and PI (BD, Bedford, Mass.). Apoptosis was assessed immediately using flow cytometry (LSR II, BD, Bedford, Mass.)

The test system of assay [2] is MM.1S cells. The assay is described as follows: CTG viability of CRISPR-edited MM.1S pools tolerant to bortezomib or JQ1. The conditions noted are these: vs treatment-naive cells with the same sgRNA library. The class given is cell-based, human. As for the experimental part: (§2) Cell viability and growth of human MM cell lines were assessed using CellTitre-Glo (CTG) assay (Promega, Madison, Wis.) per kit instructions, or CS-BLI as described (Delmore et al., 2011). Briefly, cells were seeded (5×10^3 cells/well) into 96- or 384-well opaque plates, in supplemented media (40 or 50 uL) and incubated for 24 h prior to addition of drug. For co-culture experiments, HS27A cells were pre-seeded (5×10^3 cells/well) into each well in media prior (24 h) to the addition of MM cells. At each time point (24 h, 48 h, and/or 72 h) CTG reagent (10% volume) was added to each well, and plates were read using a microplate reader (BioTek Synergy 2, BioTek, Winooski, Va.).
iii. […] Following treatments, all cells were serially cultured without drug and allowed to regrow for as long as required to enable reseeding (60×10^6 cells per flask, 100 mL) and retreatment with individual drugs while maintaining ˜1000× coverage throughout. Concomitant with retreatment, remaining cells were frozen (−80° C.; 20% FBS/DMSO) for later analysis or assessed for drug resistance/sensitivity using CTG assays. Between treatments, and in order to maintain the health of cultures, dead cells were periodically removed using Ficoll centrifugation (1,500 rpm for 10-20 min). For all CRISPR drug treatment experiments, aliquots of MM.1S-Cas9+ cells transduced with the GeCKO(Sanjana et al., 2014; Shalem et al., 2014) or Brunello (Doench et al., 2016) sgRNA libraries were frozen immediately prior to experimentation to determine the baseline distribution of sgRNAs in the cell population.

The next assay has as its system c-Myc. The assay is described as follows: Immunoblotting of degronimid-treated MM.1S cells: c-Myc. The assay is classed as cell-based, human. Particulars: 0.01-1 μM, 4 h. As for the experimental part:
as §1

Assay [3] concerns MM.1S cells. The assay is described as follows: Reverse phase protein array (RPPA) of treated MM.1S cells. The assay is classed as cell-based, human. As for the experimental part: MM.1S cells were seeded in 6-well plates (2×10^6/well) and cultured overnight prior to treatment. […] Lysates of these protein samples were processed by the Functional Proteomics RPPA Core Facility of the MD Anderson Cancer Center (Houston, Tex.), based on protocols and procedures outlined in the website of the facility (mdanderson.org/research/research-resources/core-facilities/functional-proteomicsrppa-core/rppa-process.html) and similarly to prior reports (Li et al., 2017). We mapped protein antibody labels to gene symbols available from Antibody Information and Protocols at MDACC (mdanderson.org/content/dam/mdanderson/documents/corefacilities/Functional%20Proteomics %20RPPA%20Core%20Facility/RPPA_Standard%20Ab%20List_Updated.xlsx). For data preprocessing, results from replicates of the same experimental run were averaged for each protein. The resulting matrix of RPPA data was further processed to generate log-transformed linear normalized data, linear normalized, and normalized median centered data. The differential protein expression analysis for dBET6- or JQ1-treated samples vs. controls were performed using the limma moderated t-statistic (Ritchie et al., 2015).

Assay [4] relates to OPM1, OCI-MY5, KMS11 and OPM2 (shRNAs against CRBN). The assay is described as follows: CTG viability of MM cell lines with low CRBN levels. The assay is classed as cell-based, human. The conditions noted are these: low but detectable CRBN, constitutive or shRNA. An excerpt: Human MM cell lines KMS11 and OPM-2 expressing non-targeting control shRNAs or shRNA.
The target of a further assay is T2, BRD2 (Homo sapiens, UniProt P25440).
T2 construct: endogenous in cells; host or cells: MM.1S
T2 sequence (P25440 whole entry): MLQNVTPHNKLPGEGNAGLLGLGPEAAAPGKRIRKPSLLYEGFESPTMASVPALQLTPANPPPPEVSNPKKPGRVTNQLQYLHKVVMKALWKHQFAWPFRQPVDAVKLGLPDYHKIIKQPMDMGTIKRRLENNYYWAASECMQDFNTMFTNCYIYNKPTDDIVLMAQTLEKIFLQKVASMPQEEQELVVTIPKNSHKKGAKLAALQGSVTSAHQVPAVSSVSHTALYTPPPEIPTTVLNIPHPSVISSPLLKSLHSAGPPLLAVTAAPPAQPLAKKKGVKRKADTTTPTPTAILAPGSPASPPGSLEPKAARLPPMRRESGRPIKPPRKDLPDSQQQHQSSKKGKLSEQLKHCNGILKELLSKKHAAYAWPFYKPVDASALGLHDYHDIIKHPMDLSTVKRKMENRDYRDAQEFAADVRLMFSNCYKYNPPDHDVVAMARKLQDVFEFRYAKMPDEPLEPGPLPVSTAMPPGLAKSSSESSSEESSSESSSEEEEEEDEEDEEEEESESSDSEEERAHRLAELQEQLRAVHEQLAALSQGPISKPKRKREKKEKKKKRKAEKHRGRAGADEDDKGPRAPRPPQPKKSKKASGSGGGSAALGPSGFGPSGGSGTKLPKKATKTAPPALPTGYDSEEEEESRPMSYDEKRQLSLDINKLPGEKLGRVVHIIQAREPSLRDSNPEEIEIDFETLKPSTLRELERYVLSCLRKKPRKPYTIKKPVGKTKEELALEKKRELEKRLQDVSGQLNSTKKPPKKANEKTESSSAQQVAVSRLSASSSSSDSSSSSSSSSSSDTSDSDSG
The assay is described as follows: Immunoblotting of degronimid-treated MM.1S cells: BRD2. The assay is classed as cell-based. Particulars: 0.01-1 μM, 4 h. As for the experimental part: as §1

A further assay deals with human MM cell lines. The experiment in a line: CTG / CS-BLI cell viability of human MM cell lines. The assay is classed as cell-based. As to the method:
as §2

A further assay deals with human MM.1S cells. The experiment in a line: Subcutaneous MM xenograft model. The assay is classed as in vivo, NSG mice. As for the experimental part:
i. Subcutaneous MM xenograft model: Luciferase-positive MM.1S cells (10×106 Luc-GFP-MM.1S in matrigel) were transplanted into the right flank of NSG mice (100 μL). […] Treatments were carried out daily for 8 days and tumor size assessed daily using calipers. Mice were culled when tumors reached 2000 mm3 or when moribund.

T1 sequence (Q15059 whole entry): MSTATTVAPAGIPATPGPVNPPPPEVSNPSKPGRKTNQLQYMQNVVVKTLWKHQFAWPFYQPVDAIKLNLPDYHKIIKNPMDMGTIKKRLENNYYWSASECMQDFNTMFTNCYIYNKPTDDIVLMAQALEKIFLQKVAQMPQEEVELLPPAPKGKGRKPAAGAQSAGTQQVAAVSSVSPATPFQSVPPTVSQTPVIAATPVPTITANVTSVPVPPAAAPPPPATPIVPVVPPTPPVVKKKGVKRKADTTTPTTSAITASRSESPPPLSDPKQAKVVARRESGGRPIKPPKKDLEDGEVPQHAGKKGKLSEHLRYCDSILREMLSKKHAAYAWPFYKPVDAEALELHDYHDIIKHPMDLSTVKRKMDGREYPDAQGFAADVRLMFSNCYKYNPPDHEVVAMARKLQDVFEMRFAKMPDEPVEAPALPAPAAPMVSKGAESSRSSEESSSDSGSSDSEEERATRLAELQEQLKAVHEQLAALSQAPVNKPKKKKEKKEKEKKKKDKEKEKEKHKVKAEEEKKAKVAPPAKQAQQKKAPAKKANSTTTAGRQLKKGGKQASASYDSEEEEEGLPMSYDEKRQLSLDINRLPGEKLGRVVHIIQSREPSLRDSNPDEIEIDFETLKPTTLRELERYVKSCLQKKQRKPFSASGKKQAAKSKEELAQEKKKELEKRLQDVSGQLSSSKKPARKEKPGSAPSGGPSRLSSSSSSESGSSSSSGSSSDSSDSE

As to `CC(C)(C)c1cnc(CSc2cnc(NC(=O)C3CCN(CC(=O)NCCOCCOCCOCCNc4cccc5c4C(=O)N(C4CCC(=O)NC4=O)C5=O)CC3)s2)o1` (stereo not shown) [Thal-SNS-032], in the assay with CDK9, the CDK9 protein levels entry was “causes degradation of CDK9”.
As for `Cc1sc2c(c1C)C(c1ccc(Cl)cc1)=N[C@@H](CC(=O)NCCCCCCCCNC(=O)COc1cccc3c1C(=O)N(C1CCC(=O)NC1=O)C3=O)c1nnc(C)n1-2` (stereo partly shown) [dBET6], the BRD3 protein levels entry on BRD3 was “rapid and robust depletion”. Also, the “exposure prior to drug washout sufficient to commit cells to cell death” value in the assay on MM.1S cells [1] (MM.1S cells, Annexin V/PI staining) was not above 4 h. The pro-apoptotic response entry in the assay on MM.1S cells [1] (human MM.1S cells, 0.01 μM or 0.05 μM) was “dose- and time-dependent pro-apoptotic response”. Also, in the assay on MM.1S cells [2], the “dBET6 sensitivity of pools tolerant to bortezomib or JQ1” value is listed as “do not exhibit resistance to dBET6; also recorded: equal to or greater than treatment-naive cells”. Besides, the c-Myc protein levels result in the assay on c-Myc was “rapid and robust depletion”. The “protein changes at 4 hrs” value in the assay with MM.1S cells [3] (MM.1S, dBET6 0.1 μM, JQ1 0.5 μM, 4 hrs) is “causes downregulation of Mcl-1, Cyclin B1 (not shown), and BRD4”. For the same compound, the “RPPA expression of pro-survival and pro-apoptotic proteins” value in the assay on MM.1S cells [3] (MM.1S, dBET6 0.1 μM, 4 h and 18 h) is “reduce the expression of key pro-survival proteins, such as MCL-1, c-MYC, and pS6, while leading to the upregulation of cell cycle inhibitor, p21, and cleavage of executioner caspases 3 and 7”. Moreover, in the assay with MM.1S cells [3] (MM.1S, dBET6 0.1 μM, later time-points), the “protein changes at later time-points” value was “suppression of Ser240/Ser244 S6 phosphorylation; induction of p21, and increase in cleaved caspase3/7”. Besides, in the assay on MM.1S cells [3] (dBET6 vs JQ1-treated MM.1S cells), the “suppression of c-MYC at protein level” value is reported as “more pronounced suppression of c-MYC”. The “response of lines with low CRBN levels” value in assay [4] is on record as “remained responsive to dBET6”. Besides, the BRD2 protein levels result on BRD2 was “rapid and robust depletion”. In addition, the “suppression of MM cell viability” value with human MM cell lines (MM.1S, RPMI-8226, JJN3, 48 h, CTG or CS-BLI, vs JQ1) was “more pronounced suppression of MM cell viability than JQ1”. In addition, in the assay on human MM cell lines (human MM cell lines, dBET6 compared to dBET1 or JQ1), the “in vitro anti-MM activity” value is “more potent in vitro anti-MM activity of dBET6 compared to dBET1 or JQ1”. Further, in the assay with human MM cell lines (larger panel of human MM cell lines, 48 h), the loss of viability entry was “significant loss of viability in all lines tested”. Moreover, the “rate of tumor growth increase” value in the assay with human MM.1S cells (30 mg/kg, QD, 8d, IP) is on record as “significantly suppressed the rate of tumor growth increase”. Further, the “increase in overall survival” value in the assay on human MM.1S cells (30 mg/kg, QD, 8d, p<0.05) amounted to 10 days. The survival entry in the assay on human MM.1S cells (subcutaneous MM xenografts) is recorded as “prolongation of survival”. Moreover, the “tumor burden vs vehicle” value with human MM.1S cells (subcutaneous MM.1S xenograft) is listed as “significantly lower tumor burden”.

Source of the values: US20220288051A1, “METHODS FOR TREATING CANCER USING SERIAL ADMINISTRATION OF E3 UBIQUITIN LIGASE DEGRADERS” (Dana-Farber Cancer Institute, Inc., priority 2019, published 2022).
